Consider three compounds from ChEMBL document CHEMBL4330178 (ACS Med Chem Lett, 2019).

By IC50 is commonly meant the concentration at which inhibition is half-maximal. For orientation: Emax means the size of the effect at its maximum, as opposed to the concentration needed.

Assay [1] addresses von Hippel-Lindau disease tumor suppressor/Mitogen-activated protein kinase 14 (Homo sapiens, UniProt P40337+Q16539). The assay is described as follows: Protac activity at E3 ubiquitin ligase/p38alpha in human MDA-MB-231 cells assessed as p38alpha degradation after 4 hrs by ELISA. Format: cell-based.
For assay [2], the target named is von Hippel-Lindau disease tumor suppressor/Mitogen-activated protein kinase 14 (Homo sapiens) (UniProt Q16539+P40337). As to the kind of experiment: Protac activity at E3 ubiquitin ligase/p38alpha in human MDA-MB-231 cells assessed as p38alpha degradation after 4 hrs by ELISA relative to control. Type of assay: cell-based.
Chain of von Hippel-Lindau disease tumor suppressor/Mitogen-activated protein kinase 14 (Homo sapiens) (P40337 whole entry partner): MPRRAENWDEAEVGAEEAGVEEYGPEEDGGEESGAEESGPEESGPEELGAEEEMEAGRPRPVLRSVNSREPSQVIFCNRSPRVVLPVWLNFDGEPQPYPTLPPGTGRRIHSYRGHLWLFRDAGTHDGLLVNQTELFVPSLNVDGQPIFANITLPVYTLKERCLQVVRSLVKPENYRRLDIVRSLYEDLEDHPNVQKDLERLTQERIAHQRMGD
Chain of von Hippel-Lindau disease tumor suppressor/Mitogen-activated protein kinase 14 (Homo sapiens) (Q16539 2-360 limits assumed): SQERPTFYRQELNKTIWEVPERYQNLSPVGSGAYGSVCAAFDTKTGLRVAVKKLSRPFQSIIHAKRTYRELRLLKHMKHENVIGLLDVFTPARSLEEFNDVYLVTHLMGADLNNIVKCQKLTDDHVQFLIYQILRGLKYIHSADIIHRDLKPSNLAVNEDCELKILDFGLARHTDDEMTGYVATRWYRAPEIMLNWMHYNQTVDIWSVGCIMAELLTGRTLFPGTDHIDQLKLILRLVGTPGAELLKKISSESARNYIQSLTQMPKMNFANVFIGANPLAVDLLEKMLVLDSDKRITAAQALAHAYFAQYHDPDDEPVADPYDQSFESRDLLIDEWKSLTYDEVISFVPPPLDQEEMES

Chain of von Hippel-Lindau disease tumor suppressor/Mitogen-activated protein kinase 14 (Q16539 whole entry): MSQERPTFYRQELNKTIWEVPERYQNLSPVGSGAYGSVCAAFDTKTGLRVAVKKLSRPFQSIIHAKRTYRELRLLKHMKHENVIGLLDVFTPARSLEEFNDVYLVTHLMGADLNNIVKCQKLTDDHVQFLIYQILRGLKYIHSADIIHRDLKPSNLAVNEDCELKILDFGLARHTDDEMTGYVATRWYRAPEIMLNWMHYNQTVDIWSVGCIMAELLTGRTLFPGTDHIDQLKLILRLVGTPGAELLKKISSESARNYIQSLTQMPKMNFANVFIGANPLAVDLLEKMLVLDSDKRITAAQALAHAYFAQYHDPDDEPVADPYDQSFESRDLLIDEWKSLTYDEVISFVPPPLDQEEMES
Chain of von Hippel-Lindau disease tumor suppressor/Mitogen-activated protein kinase 14 (P40337 whole entry): as the sequence (P40337 whole entry partner) above

Take `COc1cc2c(Oc3ccc(NC(=O)C4(C(=O)Nc5ccc(F)cc5)CC4)cc3F)ccnc2cc1OCCCOCCOCCC(=O)N[C@H](C(=O)N1C[C@H](O)C[C@H]1C(=O)NCc1ccc(-c2scnc2C)cc1)C(C)(C)C`: the IC50 in assay [1] came to 18.8 nM. Also, in assay [2], the Emax amounted to 91%.
Taken in the same sequence, the figures for `COc1cc2c(Oc3ccc(NC(=O)C4(C(=O)Nc5ccc(F)cc5)CC4)cc3F)ccnc2cc1OCCOCCOCCC(=O)N[C@H](C(=O)N1C[C@H](O)C[C@H]1C(=O)NCc1ccc(-c2scnc2C)cc1)C(C)(C)C` were 40.1 nM and 81%.
Taken in the same sequence, the figures for `COc1cc2c(Oc3ccc(NC(=O)C4(C(=O)Nc5ccc(F)cc5)CC4)cc3F)ccnc2cc1OCCCOCCCOCCC(=O)N[C@H](C(=O)N1C[C@H](O)C[C@H]1C(=O)NCc1ccc(-c2scnc2C)cc1)C(C)(C)C` were 50 nM and 95%.
